For orientation: IC50 means the concentration that gives 50% inhibition. Low values mean greater potency, high ones weaker potency.

Structures are written as SMILES. Converted amounts (≈) assume the structure as drawn. Like-named read-outs stand apart in the source and are kept apart here. Some results are limits rather than exact numbers.

The test system of data set [1] is M. tuberculosis Erdman. Details: species or system Mycobacterium tuberculosis. The following applies: in vivo.
In the next data set the test system is M. tuberculosis H37Rv. Details: species or system Mycobacterium tuberculosis. The settings on record: in vivo.
The target of another data set is CYP2D6 (Homo sapiens, UniProt P10635). Nature of the data set: biochemical.
For the next data set, the target named is CYP2C9 (Homo sapiens, UniProt P11712). The experiment in a line: biochemical.
For the next data set, the target named is T1, CYP1A2 (Homo sapiens, UniProt P05177).
T1 sequence (P05177 1-516): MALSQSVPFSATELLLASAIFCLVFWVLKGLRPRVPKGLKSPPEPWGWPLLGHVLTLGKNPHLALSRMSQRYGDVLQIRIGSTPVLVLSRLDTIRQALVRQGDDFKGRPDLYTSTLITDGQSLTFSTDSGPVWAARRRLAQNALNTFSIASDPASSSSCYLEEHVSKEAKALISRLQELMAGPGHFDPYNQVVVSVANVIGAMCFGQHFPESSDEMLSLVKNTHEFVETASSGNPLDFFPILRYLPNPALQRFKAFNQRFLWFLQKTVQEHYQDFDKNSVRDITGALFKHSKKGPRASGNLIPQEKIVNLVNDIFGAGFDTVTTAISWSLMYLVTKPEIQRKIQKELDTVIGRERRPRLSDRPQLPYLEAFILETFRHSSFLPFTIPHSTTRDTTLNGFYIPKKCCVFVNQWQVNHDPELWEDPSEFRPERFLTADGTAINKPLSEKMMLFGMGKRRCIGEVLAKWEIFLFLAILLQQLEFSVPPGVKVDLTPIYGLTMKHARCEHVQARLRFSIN
The experiment in a line: biochemical.

For data set [2], the system named is Mtb mc^27000. Nature of the data set: microbe, parasite or virus in culture. Type of data set: cell-based, Mycobacterium tuberculosis. The settings on record: for MIC: Mycobacterium tuberculosis, read-out: MIC of the drug alone.
The subject of data set [3] is M. tuberculosis Erdman. Details: species or system Mycobacterium tuberculosis. The settings on record: in vivo. The source holds these as a separate data set.
The nature of data set [4]: Microsomal stability assay, mouse liver microsomes. The following applies: metabolite identification.
Data set [5] relates to Mtb mc^27000. Nature of the data set: microbe, parasite or virus in culture. It is filed as cell-based, Mycobacterium tuberculosis. The following applies: for MIC: Mycobacterium tuberculosis, Mtb mc^27000, liquid medium, 96-well plates.
A further data set addresses T2, Mtb Pks13-TE domain (Mycobacterium tuberculosis, UniProt I6X8D2).
T2 construct: The 283 residue long TE domain starting from residue 1451 in full length Pks13; His6 (TEV-cleavable) (N, cleaved yes); made in house; host or cells: E. coli BL21(DE3)pLysS
T2 sequence (I6X8D2 1451-1733 limits assumed): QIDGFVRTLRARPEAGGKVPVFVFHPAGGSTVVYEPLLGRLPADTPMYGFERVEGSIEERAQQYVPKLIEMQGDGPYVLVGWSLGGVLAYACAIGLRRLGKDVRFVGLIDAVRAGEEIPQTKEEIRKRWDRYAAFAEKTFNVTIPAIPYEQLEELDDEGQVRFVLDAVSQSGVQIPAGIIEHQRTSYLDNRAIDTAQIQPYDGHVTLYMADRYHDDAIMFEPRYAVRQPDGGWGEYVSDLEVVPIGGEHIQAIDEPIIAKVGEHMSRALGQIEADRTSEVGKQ
The experiment in a line: biochemical. The following applies: mean ± SD of three independent measurements.

Setting [6] is: single drug in the synergy study.

CYP2D6, sequence (P10635 whole entry): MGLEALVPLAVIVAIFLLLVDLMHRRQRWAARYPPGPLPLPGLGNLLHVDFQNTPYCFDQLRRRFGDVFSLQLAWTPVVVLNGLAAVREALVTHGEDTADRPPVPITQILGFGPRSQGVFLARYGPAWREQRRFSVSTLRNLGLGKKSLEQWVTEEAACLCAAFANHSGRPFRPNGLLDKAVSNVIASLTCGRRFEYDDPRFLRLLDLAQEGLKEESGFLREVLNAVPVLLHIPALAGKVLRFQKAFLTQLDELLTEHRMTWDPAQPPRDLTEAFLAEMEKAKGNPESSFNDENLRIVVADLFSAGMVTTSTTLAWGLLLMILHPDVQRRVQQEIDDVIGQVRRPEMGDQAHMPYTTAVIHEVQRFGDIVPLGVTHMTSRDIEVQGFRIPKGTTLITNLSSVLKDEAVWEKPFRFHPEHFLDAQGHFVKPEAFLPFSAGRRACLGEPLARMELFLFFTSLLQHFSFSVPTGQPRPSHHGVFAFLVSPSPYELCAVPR
CYP2C9, sequence (P11712 whole entry): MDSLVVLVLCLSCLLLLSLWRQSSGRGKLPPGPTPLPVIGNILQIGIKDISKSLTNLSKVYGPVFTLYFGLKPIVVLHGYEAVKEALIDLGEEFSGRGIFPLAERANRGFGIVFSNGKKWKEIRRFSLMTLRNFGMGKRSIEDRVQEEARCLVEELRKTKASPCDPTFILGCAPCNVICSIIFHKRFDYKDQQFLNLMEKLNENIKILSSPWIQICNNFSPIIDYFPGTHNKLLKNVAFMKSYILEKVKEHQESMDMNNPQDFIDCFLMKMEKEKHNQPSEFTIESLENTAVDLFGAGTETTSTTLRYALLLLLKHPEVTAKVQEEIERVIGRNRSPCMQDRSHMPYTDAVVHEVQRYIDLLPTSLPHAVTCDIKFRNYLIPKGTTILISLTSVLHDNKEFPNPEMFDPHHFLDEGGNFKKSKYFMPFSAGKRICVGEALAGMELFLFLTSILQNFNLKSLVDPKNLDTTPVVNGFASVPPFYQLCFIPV

In the case of `NNC(=O)c1ccncc1` [INH, Isoniazid], in the data set on M. tuberculosis Erdman [1], the “reduction in lung CFU counts compared with untreated control” value is around 1.1 log10 and the “reduction in spleen bacterial burden relative to untreated control” value is recorded as around 2.5 log10 CFU. Besides, the “lung CFU after 2 weeks of treatment” value in the data set with M. tuberculosis H37Rv was around 6.7 log10.
As for `Clc1ccc(COC(Cn2ccnc2)c2ccc(Cl)cc2Cl)c(Cl)c1` (centres unmarked) [Miconazole], the results for the IC50 against CYP2D6, against CYP2C9 and at CYP1A2 were 200 nM, above 10000 nM and 1100 nM, respectively.
With `CO[C@H]1/C=C/O[C@@]2(C)Oc3c(C)c(O)c4c(O)c(c(/C=N/N5CCN(C)CC5)c(O)c4c3C2=O)NC(=O)/C(C)=C\C=C\[C@H](C)[C@H](O)[C@@H](C)[C@@H](O)[C@@H](C)[C@H](OC(C)=O)[C@@H]1C` [RIF, Rifampicin], in the data set on Mtb mc^27000 [2], the “MIC of RIF in combination” value stood at 0.011 µM, the “improvement of MIC of RIF in combination” value was around 3 fold and the MIC came to 0.35 µM. Also, the “CFU reduction in lungs compared to untreated control” value in the data set on M. tuberculosis Erdman [3] is around 2.4 log10 CFU.
In the case of `[H]/N=C(/N)N[C@H]1[C@H](O)[C@@H](O)[C@H](O[C@@H]2O[C@@H](C)[C@](O)(C=O)[C@H]2O[C@@H]2O[C@@H](CO)[C@H](O)[C@@H](O)[C@@H]2NC)[C@@H](N/C(N)=N\[H])[C@@H]1O` [SM, Streptomycin], in the data set with Mtb mc^27000 [2], the “MIC of SM in combination” value was 0.037 µM and the “improvement of MIC of SM in combination” value is around 2 fold. Besides, the MIC in the data set on Mtb mc^27000 [2] (setting [6]) amounted to 0.07 µM.
On to `CCOC(=O)c1c(-c2ccccc2)oc2ccc(O)c(CN3CCC(C)CC3)c12` [TAM1, ethyl 5-hydroxy-4-[(4-methyl-1-piperidinyl)methyl]-2-phenyl-1-benzofuran-3-carboxylate], for which the “metabolism in mouse liver microsomes” value in data set [4] was “hydroxylated”. In “Stability in mouse serum”, the “stability in mouse serum” value is “cleaved to the inactive acid”. Further, the MIC in the data set with Mtb mc^27000 [5] came out at 2.3 µM (≈ 0.905 µg/mL).
On to `CCOC(=O)c1c(-c2ccccc2)oc2ccc(O)c(CN3CCCCC3)c12` [TAM9, Ethyl 5-hydroxy-2-phenyl-4-(piperidin-1-ylmethyl)benzofuran-3-carboxylate], for which the “Mouse Cli. (intrinsic clearance in mouse liver microsomes)” value amounted to 26.9 mL/min/g. Moreover, the IC50 against Mtb Pks13-TE domain worked out at 260 ± 40 nM. For the same compound, the MIC against Mtb mc^27000 [5] was 0.4 µM (≈ 0.152 µg/mL).
With `CNC(=O)c1c(-c2ccccc2)oc2ccc(O)c(CN3CCCCC3)c12` [TAM12, 5-hydroxy-N-methyl-2-phenyl-4-(piperidin-1-ylmethyl)benzofuran-3-carboxamide], the “Mouse Cli. (intrinsic clearance in mouse liver microsomes)” value came out at 50 mL/min/g. Further, in the data set with Mtb mc^27000 [5], the “better whole-cell activity than ethyl ester analog TAM9” value came to 2 fold and the MIC was determined as 0.2 µM (≈ 0.0729 µg/mL).
Compound `CCOC(=O)c1c(-c2ccccc2)oc2cc(O)cc(CN3CCCCC3)c12` [TAM20, Ethyl 6-hydroxy-2-phenyl-4-(piperidin-1-ylmethyl)benzofuran-3-carboxylate] had a half-inhibitory concentration (IC50) at Mtb Pks13-TE domain of 450 ± 40 nM. This compound had an MIC in the data set on Mtb mc^27000 [5] of 1.1 µM (≈ 0.417 µg/mL).
The matching figures for `CCOC(=O)c1c(-c2ccccc2)oc2ccc(O)c(CN3CCCC(CO)C3)c12` (centres unmarked) [TAM21, Ethyl 5-hydroxy-4-((3-(hydroxymethyl)piperidin-1-yl)methyl)-2-phenylbenzofuran-3-carboxylate]: 420 ± 40 nM and 10 µM (≈ 4.09 µg/mL).
For `CCOC(=O)c1c(-c2ccccc2)oc2ccc(O)c(CN3CCCCC3CO)c12` (centres unmarked) [TAM22, Ethyl 5-hydroxy-4-((2-(hydroxymethyl)piperidin-1-yl)methyl)-2-phenylbenzofuran-3-carboxylate] the same measures were above 10000 nM and above 10 µM.
For `CCOC(=O)c1c(-c2ccc(O)cc2)oc2ccc(O)c(CN3CCCC(CO)C3)c12` (centres unmarked) [TAM23, Ethyl 5-hydroxy-4-((3-(hydroxymethyl)piperidin-1-yl)methyl)-2-(4-hydroxyphenyl)benzofuran-3-carboxylate] the same measures were 380 ± 10 nM and 2.5 µM (≈ 1.06 µg/mL).
With `CNC(=O)c1c(-c2ccccc2)oc2ccc(O)c(CN3CCCC(CO)C3)c12` (centres unmarked) [TAM24, 5-Hydroxy-4-((3-(hydroxymethyl)piperidin-1-yl)methyl)-N-methyl-2-phenylbenzofuran-3-carboxamide], at Mtb Pks13-TE domain, the half-inhibitory concentration (IC50) came out at 2100 ± 300 nM. The compound further came in with an MIC against Mtb mc^27000 [5] of 0.5 µM (≈ 0.197 µg/mL).
`COc1nc2ccc(Br)cc2cc1[C@@H](c1ccccc1)[C@@](O)(CCN(C)C)c1cccc2ccccc12` [TMC207, Bedaquiline]: in the data set on Mtb mc^27000 [2], the “MIC of TMC207 in combination” value was 0.005 µM and the “improvement of MIC of TMC207 in combination” value amounted to 2.6 fold. In the data set with Mtb mc^27000 [2] (setting [6]), the MIC worked out at 0.013 µM.

(Values after paper PMC5509550, “Development of a Novel Lead that Targets M. tuberculosis Polyketide Synthase 13” (Cell, 2017).)
